For 17 compounds, IC50 and Ratio results are on record in ChEMBL document CHEMBL1150544, “C-3-N-acyl analogs of 9(R)-dihydrotaxol: synthesis and structure activity relationships” (Bioorg Med Chem Lett, 1994).

One assay has as its system B16-F10. Description: In vitro cytotoxicity against B16F10-mouse melanoma cells. In kind it is functional, cell-based.
The subject of a further assay is HT-29. As to the kind of experiment: In vitro cytotoxicity against HT29-human colon adenocarcinoma cells. In kind it is functional, cell-based.
A further assay deals with P388. As to the kind of experiment: In vitro cytotoxicity against P388-mouse leukemia cells. In kind it is functional, cell-based.
In another assay the test system is A549. As to the kind of experiment: In vitro cytotoxicity against A549-human lung carcinoma cells. In kind it is functional, cell-based.
The nature of assay [1]: Antitumor activity relative to taxol. In kind it is functional.

Molecules are shown by their SMILES. In brackets after ≈: the same amount, converted by molar mass.

For the compound `CC(=O)O[C@H]1C(=O)[C@@]2(C)[C@H]([C@H](OC(=O)c3ccccc3)[C@]3(O)C[C@H](OC(=O)[C@H](O)[C@@H](NC(=O)c4ccccc4)c4ccccc4)C(C)=C1C3(C)C)[C@]1(OC(C)=O)CO[C@@H]1C[C@@H]2O` [PACLITAXEL], the IC50 was found to be 0.0041 µg/mL (≈ 0.0048 µM) in the assay with B16-F10, 0.0024 µg/mL (≈ 0.00281 µM) in the assay on HT-29 and 0.046 µg/mL (≈ 0.0539 µM) in the assay on P388.

Consider `CC(=O)O[C@@H]1C2=C(C)[C@@H](OC(=O)[C@H](O)[C@@H](NC(=O)NC(C)(C)C)c3ccccc3)C[C@@](O)([C@@H](OC(=O)c3ccccc3)[C@@H]3[C@]4(OC(C)=O)CO[C@@H]4C[C@H](O)[C@@]3(C)[C@H]1O)C2(C)C`, for which the IC50 in the assay with A549 amounted to 0.014 µg/mL (≈ 0.0165 µM); in the assay on B16-F10 it was 0.0046 µg/mL (≈ 0.00541 µM); with HT-29, 0.0056 µg/mL (≈ 0.00658 µM); with P388 it was 0.017 µg/mL (≈ 0.02 µM). For the same compound, in assay [1], the Ratio was found to be 1.06.

Take `CC(=O)O[C@@H]1C2=C(C)[C@@H](OC(=O)[C@H](O)[C@@H](NC(=O)c3ccc(OCc4ccccc4)cc3)c3ccccc3)C[C@@](O)([C@@H](OC(=O)c3ccccc3)[C@@H]3[C@]4(OC(C)=O)CO[C@@H]4C[C@H](O)[C@@]3(C)[C@H]1O)C2(C)C`: the IC50 in the assay with A549 was found to be 0.019 µg/mL (≈ 0.0197 µM); with B16-F10, 0.025 µg/mL (≈ 0.026 µM); with HT-29 it was 0.008 µg/mL (≈ 0.00832 µM); with P388, 0.053 µg/mL (≈ 0.0551 µM). For the same compound, the Ratio in assay [1] stood at 0.76.

With `CC(=O)O[C@@H]1C2=C(C)[C@@H](OC(=O)[C@H](O)[C@@H](NC(=O)CC(C)(C)C)c3ccccc3)C[C@@](O)([C@@H](OC(=O)c3ccccc3)[C@@H]3[C@]4(OC(C)=O)CO[C@@H]4C[C@H](O)[C@@]3(C)[C@H]1O)C2(C)C`, the IC50 came to 0.027 µg/mL (≈ 0.0318 µM) in the assay on A549, 0.0056 µg/mL (≈ 0.00659 µM) in the assay on B16-F10, 0.009 µg/mL (≈ 0.0106 µM) in the assay with HT-29 and 0.052 µg/mL (≈ 0.0612 µM) in the assay with P388. Besides, the Ratio in assay [1] turned out to be 1.03.

With `CC(=O)O[C@@H]1C2=C(C)[C@@H](OC(=O)[C@H](O)[C@@H](NC(=O)c3ccc(O)cc3)c3ccccc3)C[C@@](O)([C@@H](OC(=O)c3ccccc3)[C@@H]3[C@]4(OC(C)=O)CO[C@@H]4C[C@H](O)[C@@]3(C)[C@H]1O)C2(C)C`, the IC50 in the assay with A549 was above 0.1 µg/mL; in the assay on B16-F10, above 0.1 µg/mL; in the assay with HT-29, 0.067 µg/mL (≈ 0.0768 µM); with P388 it was above 0.1 µg/mL. In assay [1], the Ratio is 1.07.

As for `CC(=O)O[C@@H]1C2=C(C)[C@@H](OC(=O)[C@H](O)[C@@H](NC(=O)OCC(C)C)c3ccccc3)C[C@@](O)([C@@H](OC(=O)c3ccccc3)[C@@H]3[C@]4(OC(C)=O)CO[C@@H]4C[C@H](O)[C@@]3(C)[C@H]1O)C2(C)C`, the IC50 in the assay with A549 was found to be 0.0043 µg/mL (≈ 0.00505 µM); in the assay on B16-F10, 0.0069 µg/mL (≈ 0.0081 µM); in the assay with HT-29, 0.0023 µg/mL (≈ 0.0027 µM); in the assay on P388 it was 0.028 µg/mL (≈ 0.0329 µM). The Ratio in assay [1] is 1.03.

As to `CC(=O)O[C@@H]1C2=C(C)[C@@H](OC(=O)[C@H](O)[C@@H](NC(=O)C(C)(C)C)c3ccccc3)C[C@@](O)([C@@H](OC(=O)c3ccccc3)[C@@H]3[C@]4(OC(C)=O)CO[C@@H]4C[C@H](O)[C@@]3(C)[C@H]1O)C2(C)C`, the half-maximal inhibitory concentration (IC50) is 0.11 µg/mL (≈ 0.132 µM) with A549, 0.035 µg/mL (≈ 0.0419 µM) with B16-F10, below 0.01 µg/mL in the assay with HT-29 and 0.083 µg/mL (≈ 0.0993 µM) in the assay with P388. The Ratio in assay [1] was 2.36.

Consider `CC(=O)N[C@@H](c1ccccc1)[C@@H](O)C(=O)O[C@H]1C[C@@]2(O)[C@@H](OC(=O)c3ccccc3)[C@@H]3[C@]4(OC(C)=O)CO[C@@H]4C[C@H](O)[C@@]3(C)[C@@H](O)[C@H](OC(C)=O)C(=C1C)C2(C)C`, for which the half-maximal inhibitory concentration (IC50) in the assay on A549 turned out to be 2.1 µg/mL (≈ 2.65 µM); in the assay on B16-F10, 1.1 µg/mL (≈ 1.39 µM); in the assay with HT-29, 0.27 µg/mL (≈ 0.34 µM); in the assay with P388 it was 2.02 µg/mL (≈ 2.54 µM). In addition, in assay [1], the Ratio turned out to be 3.17.

As to `CC(=O)O[C@@H]1C2=C(C)[C@@H](OC(=O)[C@H](O)[C@@H](NC(=O)c3ccc(C)cc3)c3ccccc3)C[C@@](O)([C@@H](OC(=O)c3ccccc3)[C@@H]3[C@]4(OC(C)=O)CO[C@@H]4C[C@H](O)[C@@]3(C)[C@H]1O)C2(C)C`, the IC50 in the assay with A549 stood at 0.043 µg/mL (≈ 0.0494 µM); in the assay on B16-F10, 0.025 µg/mL (≈ 0.0287 µM); with HT-29, 0.012 µg/mL (≈ 0.0138 µM); with P388 it was 0.063 µg/mL (≈ 0.0724 µM). In addition, the Ratio in assay [1] was 0.75.

On to `CCOC(=O)N[C@@H](c1ccccc1)[C@@H](O)C(=O)O[C@H]1C[C@@]2(O)[C@@H](OC(=O)c3ccccc3)[C@@H]3[C@]4(OC(C)=O)CO[C@@H]4C[C@H](O)[C@@]3(C)[C@@H](O)[C@H](OC(C)=O)C(=C1C)C2(C)C`, for which the IC50 in the assay with A549 stood at 0.0057 µg/mL (≈ 0.00692 µM); with B16-F10 it was 0.018 µg/mL (≈ 0.0218 µM); in the assay on HT-29, 0.005 µg/mL (≈ 0.00607 µM); in the assay on P388 it was 0.043 µg/mL (≈ 0.0522 µM). In assay [1], the Ratio was 0.82.

`CC(=O)O[C@@H]1C2=C(C)[C@@H](OC(=O)[C@H](O)[C@@H](NC(=O)OC(C)(C)C)c3ccccc3)C[C@@](O)([C@@H](OC(=O)c3ccccc3)[C@@H]3[C@]4(OC(C)=O)CO[C@@H]4C[C@H](O)[C@@]3(C)[C@H]1O)C2(C)C` showed an IC50 in the assay with A549 of 0.0003 µg/mL (≈ 0.000352 µM). Further, in assay [1], the Ratio stood at 0.87.

On to `CC(=O)O[C@@H]1C2=C(C)[C@@H](OC(=O)[C@H](O)[C@@H](NC(=O)OCc3ccccc3)c3ccccc3)C[C@@](O)([C@@H](OC(=O)c3ccccc3)[C@@H]3[C@]4(OC(C)=O)CO[C@@H]4C[C@H](O)[C@@]3(C)[C@H]1O)C2(C)C`, for which the IC50 turned out to be 0.031 µg/mL (≈ 0.035 µM) in the assay on A549, 0.044 µg/mL (≈ 0.0497 µM) with B16-F10, 0.012 µg/mL (≈ 0.0135 µM) in the assay with HT-29 and 0.057 µg/mL (≈ 0.0643 µM) in the assay on P388.

In the case of `CC(=O)O[C@@H]1C2=C(C)[C@@H](OC(=O)[C@H](O)[C@@H](NC(=O)OCC(C)(C)C)c3ccccc3)C[C@@](O)([C@@H](OC(=O)c3ccccc3)[C@@H]3[C@]4(OC(C)=O)CO[C@@H]4C[C@H](O)[C@@]3(C)[C@H]1O)C2(C)C`, the IC50 came out at 0.00065 µg/mL (≈ 0.000751 µM) in the assay on A549, 0.0074 µg/mL (≈ 0.00855 µM) in the assay with B16-F10, 0.0015 µg/mL (≈ 0.00173 µM) in the assay with HT-29 and 0.019 µg/mL (≈ 0.0219 µM) with P388. In addition, in assay [1], the Ratio is 0.82.

Regarding `CCC(C)(C)OC(=O)N[C@@H](c1ccccc1)[C@@H](O)C(=O)O[C@H]1C[C@@]2(O)[C@@H](OC(=O)c3ccccc3)[C@@H]3[C@]4(OC(C)=O)CO[C@@H]4C[C@H](O)[C@@]3(C)[C@@H](O)[C@H](OC(C)=O)C(=C1C)C2(C)C`, the half-maximal inhibitory concentration (IC50) was determined as 0.001 µg/mL (≈ 0.00115 µM) with A549, 0.0003 µg/mL (≈ 0.000346 µM) with B16-F10, 0.00067 µg/mL (≈ 0.000774 µM) with HT-29 and 0.0046 µg/mL (≈ 0.00531 µM) in the assay on P388. Besides, in assay [1], the Ratio worked out at 0.73.

Turning to `CC(=O)O[C@@H]1C2=C(C)[C@@H](OC(=O)[C@H](O)[C@@H](NC(=O)OC34CC5CC(CC(C5)C3)C4)c3ccccc3)C[C@@](O)([C@@H](OC(=O)c3ccccc3)[C@@H]3[C@]4(OC(C)=O)CO[C@@H]4C[C@H](O)[C@@]3(C)[C@H]1O)C2(C)C`, the IC50 was determined as 0.0043 µg/mL (≈ 0.00462 µM) in the assay with A549, 0.0048 µg/mL (≈ 0.00516 µM) in the assay with B16-F10, 0.0028 µg/mL (≈ 0.00301 µM) in the assay on HT-29 and 0.01 µg/mL (≈ 0.0108 µM) with P388. Further, in assay [1], the Ratio turned out to be 1.54.

For `CC(=O)O[C@@H]1C2=C(C)[C@@H](OC(=O)[C@H](O)[C@@H](NC(=O)c3ccco3)c3ccccc3)C[C@@](O)([C@@H](OC(=O)c3ccccc3)[C@@H]3[C@]4(OC(C)=O)CO[C@@H]4C[C@H](O)[C@@]3(C)[C@H]1O)C2(C)C`, the IC50 was 0.0072 µg/mL (≈ 0.00851 µM) in the assay with A549, 0.012 µg/mL (≈ 0.0142 µM) with B16-F10, 0.0041 µg/mL (≈ 0.00485 µM) with HT-29 and 0.034 µg/mL (≈ 0.0402 µM) in the assay on P388. For the same compound, in assay [1], the Ratio came to 0.73.

On to `CC(=O)O[C@@H]1C2=C(C)[C@@H](OC(=O)[C@H](O)[C@@H](NC(=O)OC(C)C)c3ccccc3)C[C@@](O)([C@@H](OC(=O)c3ccccc3)[C@@H]3[C@]4(OC(C)=O)CO[C@@H]4C[C@H](O)[C@@]3(C)[C@H]1O)C2(C)C`, for which the IC50 with A549 worked out at 0.0012 µg/mL (≈ 0.00143 µM); in the assay with B16-F10, 0.0022 µg/mL (≈ 0.00263 µM); in the assay with HT-29 it was 0.0008 µg/mL (≈ 0.000955 µM); with P388 it was 0.0092 µg/mL (≈ 0.011 µM). The Ratio in assay [1] amounted to 0.75.
